Experimental findings from US20230101747A1 (Schrödinger, Inc., priority 2019, published 2023) are described below.

As usually defined, the IC50 is the concentration that gives 50% inhibition.

Where two headings read alike, the source gives them in different places.

Experiment [1] deals with phosphorylation of MCM2 S53 (CDC7 substrate) in colo205 cells. Put plainly: Phosphorylated MCM2 MSD electrochemiluminescence assay. The class given is cell-based. The conditions noted are these: Homo sapiens, read-out: pMCM2-S53 MSD Colo205 IC50. Here is the method:
Phosphorylated MCM2 MSD Electrochemiluminescence Assay
The effect of CDC7 inhibitors on cellular phosphorylation of the CDC7 substrate MCM2 was determined using the following protocol:
A total of 40,000 colo205 cells in 100 uL culture medium (1640 medium+10% Fetal bovine serum+1% Penicillin-Streptomycin) were plated in 96-well cell culture plates and allowed to attach for 6 hours. 3-fold serial dilutions of test compounds were prepared in completed PBS at 25× final concentration and 4 uL of each were added to the cells and incubated for 20 hours at 37° C., 5% CO2. Each concentration was tested in duplicate. After the 20 h incubation, cells were washed with 150 uL PBS and lysed with 40 uL MSD lysis buffer (obtained from Meso Scale Diagnostics) supplied with 1× complete ULTRA cocktail inhibitor (obtained from Roche). To detect phosphorylation of MCM2 S53, 30 μL of capture antibody solution (obtained from Abnova, catalog number H00004171-M01, 1:500) was added to each well of MULTI-ARRAY 96-well High Bind Plate, and incubated overnight. The antibody solution was removed, wells blocked with BSA solution and plates washed, followed by addition of 30 ul of cell lysate per well. After 2 h incubation, plates were washed. 30 μL of 1× detection antibody solution (obtained from Abcam, catalog number ab109133, 1:1000) was then added to each well and incubate for 1 hour. Plates were washed and 30 μL of 1× secondary antibody solution (obtained from MSD, catalog number R32AB-1, 1:5000) was added to each well and incubate for 1 hour. Plates were washed and 150 μL of 1× Read Buffer T was added to each well of the MSD plate. The electrochemiluminescence signal was measured on a MESO SECTOR S600 plate reader. The percentage of remaining phosphorylated MCM2 signal was calculated following the equation below.
HC (high control): Cells treated with DMSO Cpds: Cells treated with test compounds LC (low control): Cells treated with positive control CDC7 inhibitor

Experiment [2] addresses T1, Full length human CDC7 protein co-expressed with DBF4 (Homo sapiens, UniProt O00311).
T1 construct: Full length human CDC7 protein co-expressed with DBF4; purchased SignalChem (China)
Put plainly: CDC7 kinase biochemical assay (ADP-Glo, PDKtide substrate). The conditions noted are these: 0.1 nM CDC7/DBF4, 1 uM ATP, 10 uM PDKtide, 4 h; read-out: CDC7 ADP-Glo PDKtide IC50. The procedure, abridged: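 Full-length human CDC7 co-expressed with DBF4 (0.1 nM) incubated 4 h with 1 uM ATP and 10 uM PDKtide in 40 mM Tris pH 7.5, 20 mM MgCl2, 0.1 mg/ml BSA, 50 uM DTT. ADP formed read by ADP-Glo luminescence. % inhibition scaled between DMSO (high) and reference CDC7 inhibitor (low) controls.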

Where [3] appears, read: COLO 205, colo205 cells, 20 h incubation.

T1 sequence (O00311 whole entry): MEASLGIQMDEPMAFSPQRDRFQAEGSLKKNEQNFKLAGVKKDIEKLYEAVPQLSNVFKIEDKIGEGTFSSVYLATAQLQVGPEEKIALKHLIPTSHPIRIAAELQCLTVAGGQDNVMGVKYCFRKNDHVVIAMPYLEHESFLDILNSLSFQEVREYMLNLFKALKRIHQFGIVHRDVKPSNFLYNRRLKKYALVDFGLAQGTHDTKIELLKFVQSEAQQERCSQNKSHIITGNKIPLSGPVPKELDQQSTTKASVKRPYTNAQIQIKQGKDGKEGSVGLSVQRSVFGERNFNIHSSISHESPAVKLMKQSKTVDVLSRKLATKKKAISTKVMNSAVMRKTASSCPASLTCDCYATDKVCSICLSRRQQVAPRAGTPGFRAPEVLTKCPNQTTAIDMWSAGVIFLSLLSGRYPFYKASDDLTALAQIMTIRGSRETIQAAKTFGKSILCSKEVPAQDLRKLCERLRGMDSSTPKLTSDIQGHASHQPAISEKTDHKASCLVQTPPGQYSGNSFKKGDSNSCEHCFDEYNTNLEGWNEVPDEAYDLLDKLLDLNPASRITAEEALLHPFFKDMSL
T1 sequence (Q9UBU7 whole entry partner): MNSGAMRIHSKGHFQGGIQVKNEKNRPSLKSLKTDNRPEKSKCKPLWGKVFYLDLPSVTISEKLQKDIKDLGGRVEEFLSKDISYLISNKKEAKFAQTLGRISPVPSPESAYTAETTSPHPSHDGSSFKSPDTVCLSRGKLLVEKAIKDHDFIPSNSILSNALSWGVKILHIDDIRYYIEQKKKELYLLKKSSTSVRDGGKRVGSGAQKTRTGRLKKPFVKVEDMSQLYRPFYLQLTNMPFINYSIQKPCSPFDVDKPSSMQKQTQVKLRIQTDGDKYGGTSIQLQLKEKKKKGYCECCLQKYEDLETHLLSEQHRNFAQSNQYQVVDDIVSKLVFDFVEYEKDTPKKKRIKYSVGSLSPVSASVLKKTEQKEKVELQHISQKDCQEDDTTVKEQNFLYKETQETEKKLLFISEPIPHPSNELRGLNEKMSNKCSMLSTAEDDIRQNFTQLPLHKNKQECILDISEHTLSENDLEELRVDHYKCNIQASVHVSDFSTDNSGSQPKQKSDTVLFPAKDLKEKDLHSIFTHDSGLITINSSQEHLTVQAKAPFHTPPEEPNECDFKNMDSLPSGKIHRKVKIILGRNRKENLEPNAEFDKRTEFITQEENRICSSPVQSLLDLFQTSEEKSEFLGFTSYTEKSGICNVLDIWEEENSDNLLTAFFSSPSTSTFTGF

For `C[C@@H]1CN2CC(F)(F)Oc3c(-c4cn[nH]c4)sc(c32)C(=O)N1` [Compound 93, (10R)-6,6-difluoro-10-methyl-3-(1H-pyrazol-4-yl)-5-oxa-2-thia-8,11-diazatricyclo [6.4.1.0^443] trideca-1(13), 3-dien-12-one], the IC50 is 28 nM in experiment [1] (setting [3]) and < 1 nM in experiment [2].

`COC1(C[C@@H]2CNC(=O)c3sc(-c4cn[nH]c4)c4c3N2CCC4)CC1` [Compound 91, (9R)-9-[(1-methoxycyclopropyl)methyl]-3-(1H-pyrazol-4-yl)-2-thia-8,11-diazatricyclo [6.4.1.0^4,13]trideca-1(13),3-dien-12-one]: the IC50 was 660 nM in experiment [1] (setting [3]) and < 1 nM in experiment [2].

As for `O=C1N[C@H](CO)CN2CCOc3c(-c4cn[nH]c4)sc1c32` [Compound 39, (S)-7-(hydroxymethyl)-2-(1H-pyrazol-4-yl)-4,5,7,8-tetrahydro-3-oxa-1-thia-5a,8-diazabenzo[cd]azulen-9(6H)-one], the values for the IC50 in experiment [1] (setting [3]) and in experiment [2] were 265 nM and < 1 nM, respectively.

With `O=C1N[C@H](C2CCC2)CN2CC(F)(F)Oc3c(-c4cn[nH]c4)sc1c32` [Compound 100, (R)-7-cyclobutyl-4,4-difluoro-2-(1H-pyrazol-4-yl)-4,5,7,8-tetrahydro-3-oxa-1-thia-5a,8-diazabenzo[cd]azulen-9(6H)-one], the IC50 in experiment [1] (setting [3]) was 23 nM; in experiment [2] it was < 1 nM.

Turning to `O=C1NCCN2c3c1sc(-c1cn[nH]c1)c3OC[C@@H]2CO` [Compound 49, (S)-5-(hydroxymethyl)-2-(1H-pyrazol-4-yl)-4,5,7,8-tetrahydro-3-oxa-1-thia-5a,8-diazabenzo[cd]azulen-9(6H)-one], the IC50 in experiment [1] (setting [3]) was 509 nM; in experiment [2], < 1 nM.

As to `O=C1N[C@@H](COC(F)F)CN2CC(F)(F)Cc3c(-c4cn[nH]c4)sc1c32` [Compound 142, (R)-7-((difluoromethoxy)methyl)-4,4-difluoro-2-(1H-pyrazol-4-yl)-4,5,7,8-tetrahydro-3H-1-thia-5a,8-diazabenzo[cd]azulen-9(6H)-one], the IC50 in experiment [1] (setting [3]) is 5 nM; in experiment [2], < 1 nM.

As to `CN1CC(F)(F)C[C@H]1[C@H]1CN2CC(F)(F)Cc3c(-c4cn[nH]c4)sc(c32)C(=O)N1` [Compound 136, (R)-7-((S)-4,4-difluoro-1-methylpyrrolidin-2-yl)-4,4-difluoro-2-(1H-pyrazol-4-yl)-4,5,7,8-tetrahydro-3H-1-thia-5a,8-diazabenzo[cd]azulen-9(6H)-one], the IC50 is 16 nM in experiment [1] (setting [3]) and < 1 nM in experiment [2].

As for `O=C1N[C@@H]([C@@H]2CC(F)(F)CN2)CN2CC(F)(F)Cc3c(-c4cn[nH]c4)sc1c32` [Compound 135, (10R)-10-[(2S)-4,4-difluoropyrrolidin-2-yl]-6,6-difluoro-3-(1H-pyrazol-4-yl)-2-thia-8,11-diazatricyclo[6.4.1.04,13]trideca-1(13),3-dien-12-one], the IC50 in experiment [1] (setting [3]) was 27 nM; in experiment [2] it was < 1 nM.

For the molecule `COC[C@H]1CN2C[C@@H](F)Cc3c(-c4cn[nH]c4)sc(c32)C(=O)N1` (single isomer, unassigned) [Compound 125], the IC50 in experiment [1] (setting [3]) was 12 nM; in experiment [2], < 1 nM.

As for `C[C@H]1CN2CCOc3c(-c4cn[nH]c4)sc(c32)C(=O)N1` [Compound 16, (S)-7-methyl-2-(1H-pyrazol-4-yl)-4,5,7,8-tetrahydro-3-oxa-1-thia-5a,8-diazabenzo[cd]azulen-9(6H)-one], the IC50 is 16 nM in experiment [1] (setting [3]) and < 1 nM in experiment [2].

For the molecule `O=C1N[C@@H](C23CCC(CC2)O3)CN2CC(F)(F)Cc3c(-c4cn[nH]c4)sc1c32` (single isomer, unassigned) [Compound 121], the IC50 in experiment [1] (setting [3]) is 12 nM; in experiment [2] it was < 1 nM.

As for `O=C1NC2(CCC2)CN2CCOc3c(-c4cn[nH]c4)sc1c32` [Compound 51, 2-(1H-pyrazol-4-yl)-4,5-dihydro-6H-3-oxa-1-thia-5a,8-diazaspiro[benzo[cd]azulene-7,1′-cyclobutan]-2,2a1(9a)-dien-9(8H)-one], the IC50 in experiment [1] (COLO 205, 20 h) was 18 nM; in experiment [2], < 1 nM.

With `COC[C@@H]1CNC(=O)c2sc(-c3cn[nH]c3)c3c2N1CCO3` [Compound 55, (S)-6-(methoxymethyl)-2-(1H-pyrazol-4-yl)-4,5,7,8-tetrahydro-3-oxa-1-thia-5a,8-diazabenzo[cd]azulen-9(6H)-one], the IC50 in experiment [1] (setting [3]) is 21 nM; in experiment [2], < 1 nM.

Consider `COC[C@H]1CN2CC(F)(F)Cc3c(-c4cn[nH]c4)sc(c32)C(=O)N1` [Compound 103, (10R)-6,6-difluoro-10-(methoxymethyl)-3-(1H-pyrazol-4-yl)-2-thia-8,11-diazatricyclo [6.4.1.0^4,13]trideca-1(13),3-dien-12-one], for which the values for the IC50 in experiment [1] (setting [3]) and in experiment [2] were 15 nM and < 1 nM, respectively.

For the molecule `O=C1N[C@@H]([C@H]2CCCO2)CN2CC(F)(F)Cc3c(-c4cn[nH]c4)sc1c32` (single isomer, unassigned) [Compound 118], the values for the IC50 in experiment [1] (setting [3]) and in experiment [2] were 5 nM and < 1 nM, respectively.

Regarding `O=C1NC[C@@H](C2CCOCC2)N2CCOc3c(-c4cn[nH]c4)sc1c32` (single isomer, unassigned) [Compound 27], the IC50 in experiment [1] (setting [3]) is 256 nM; in experiment [2], < 1 nM.

For the molecule `CC(C)(O)C[C@@H]1CNC(=O)c2sc(-c3cn[nH]c3)c3c2N1CCO3` [Compound 104, (R)-6-(2-hydroxy-2-methylpropyl)-2-(1H-pyrazol-4-yl)-4,5,7,8-tetrahydro-3-oxa-1-thia-5a,8-diazabenzo[cd]azulen-9(6H)-one], the figures for the IC50 in experiment [1] (setting [3]) and in experiment [2] were 150 nM and < 1 nM, respectively.

For the molecule `O=C1NC(C2CC(F)(F)C2)CN2CC(F)Cc3c(-c4cn[nH]c4)sc1c32` (single isomer, unassigned) [Compound 130, 7-(3,3-difluorocyclobutyl)-4-fluoro-2-(1H-pyrazol-4-yl)-4,5,7,8-tetrahydro-3H-1-thia-5a,8-diazabenzo[cd]azulen-9(6H)-one], in experiment [2], the IC50 was < 1 nM.

For `CNC[C@H]1CNC(=O)c2sc(-c3cn[nH]c3)c3c2N1CCO3` [Compound 37, (S)-6-((methylamino)methyl)-2-(1H-pyrazol-4-yl)-4,5,7,8-tetrahydro-3-oxa-1-thia-5a,8-diazabenzo[cd]azulen-9(6H)-one], the IC50 in experiment [2] was < 1 nM.

As to `CC(C)(O)C[C@@H]1CN2CC(F)(F)Oc3c(-c4cn[nH]c4)sc(c32)C(=O)N1` [Compound 117, (R)-4,4-difluoro-7-(2-hydroxy-2-methylpropyl)-2-(1H-pyrazol-4-yl)-4,5,7,8-tetrahydro-3-oxa-1-thia-5a,8-diazabenzo-[cd]azulen-9(6H)-one], the IC50 in experiment [2] is < 1 nM.

On to `O=C1N[C@@H]([C@@H]2CCCO2)CN2CC(F)(F)Cc3c(-c4cn[nH]c4)sc1c32` (single isomer, unassigned) [Compound 120], for which the half-inhibitory concentration (IC50) in experiment [2] is < 1 nM.

As for `CC1C(C2CCC2)NC(=O)c2sc(-c3cn[nH]c3)c3c2N1CCO3` (racemic) [Compound 96, 10-cyclobutyl-9-methyl-3-(1H-pyrazol-4-yl)-5-oxa-2-thia-8,11-diazatricyclo[6.4.1.0^4,13] trideca-1(13),3-dien-12-one], in experiment [2], the IC50 is < 1 nM.

As for `CC(C)(O)C[C@H]1CN2CC(F)(F)Oc3c(-c4cn[nH]c4)sc(c32)C(=O)N1` [Compound 116, (S)-4,4-difluoro-7-(2-hydroxy-2-methylpropyl)-2-(1H-pyrazol-4-yl)-4,5,7,8-tetrahydro-3-oxa-1-thia-5a,8-diazabenzo[cd]azulen-9(6H)-one], the IC50 in experiment [2] was < 1 nM.

Turning to `O=C1N[C@H](C2CCC2)CN2CCOc3c(-c4ccncc4)sc1c32` [Compound 106, (R)-7-cyclobutyl-2-(pyridin-4-yl)-4,5,7,8-tetrahydro-3-oxa-1-thia-5a,8-diazabenzo[cd]azulen-9(6H)-one], the IC50 in experiment [2] is < 1 nM.

With `O=C1NC(C2CC(F)(F)C2)CN2CC(F)(F)Cc3c(-c4cn[nH]c4)sc1c32` (single isomer, unassigned) [Compound 114, (R or S)-7-(3,3-difluorocyclobutyl)-4,4-difluoro-2-(1H-pyrazol-4-yl)-4,5,7,8-tetrahydro-3H-1-thia-5a,8-diazabenzo[cd]azulen-9(6H)-one], in experiment [2], the IC50 was < 1 nM.
